# Patent publication US20200368312A1 (priority 2017, published 2020)
# Like-named read-outs stand apart in the source and are kept apart here.
# What was measured:
# [1] = tested on: MRSA isolate ATCC BAA-1556; test: MIC, CLSI-guided broth susceptibility testing (Example 10); format: cell-based, Staphylococcus aureus
# Experimental: (§1) MIC Testing: Glycopeptide compounds were dissolved in 100% DMSO. In vitro activities were determined using CLSI-guided broth susceptibility testing to measure drug minimum inhibitory concentrations (MICs) of the compounds against the quality control strain ATCC 29213 (MSSA) and the MRSA isolate ATCC BAA-1556. Glycopeptides are defined as compounds of Formula (I), and their respective R^1, R^2, R^3 and R^4 groups. X is —O— for each compound in Table 2.
# [2] = tested on: quality control strain ATCC 29213 (MSSA); test: as above; format: cell-based, Staphylococcus aureus
# Experimental: as §1
# S. haemolyticus (CoNS) = test: Broth microdilution MIC, S. haemolyticus (CoNS) (Table 7); format: cell-based; settings: S. haemolyticus (CoNS) MMX 529 ATCC 29970
# C. perfringens = format: cell-based
# P. anaerobius = test: Broth microdilution MIC, P. anaerobius (Table 7); format: cell-based; settings: P. anaerobius MMX 1208 ATCC 27337
# P. micros = test: Broth microdilution MIC, P. micros (Table 7); format: cell-based; settings: P. micros MMX 3546
# Staphylococcus aureus = test: microbe, parasite or virus in culture; format: cell-based; settings: for MIC: Staphylococcus aureus, read-out: MIC
# S. epidermidis (CoNS) = test: Broth microdilution MIC, S. epidermidis (CoNS) (Table 7); format: cell-based
# Enterococci = format: cell-based
# S. lugdenensis (CoNS) = test: Broth microdilution MIC, S. lugdenensis (CoNS) (Table 7); format: cell-based; settings: S. lugdenensis (CoNS) MMX 8724
# S. hominis (CoNS) = test: Broth microdilution MIC, S. hominis (CoNS) (Table 7); format: cell-based; settings: S. hominis (CoNS) MMX 667 ATCC 27844
# Streptococci = test: Broth microdilution MIC, Streptococci (Example 11, Table 7); format: cell-based
# P. acnes = test: Broth microdilution MIC, P. acnes (Table 7); format: cell-based
compound,measurement,setting,value
CNC(CC(C)C)C(=O)NC1C(=O)NC(CC(N)=O)C(=O)NC2C(=O)NC3C(=O)NC(C(=O)NC(C(=O)O)c4cc(O)cc(O)c4-c4cc3ccc4O)C(O)c3ccc(c(Cl)c3)Oc3cc2cc(c3OC2OC(CO)C(O)C(O)C2OC2CC(C)(NCc3ccc(-c4ccc(Cl)cc4)cc3)C(O)C(C)O2)Oc2ccc(cc2Cl)C1O (centres unmarked) [RV79],MIC Values MRSA 1556,[1],0.016 mg/L
same,MIC Values MSSA 29213,[2],0.016 mg/L
CN[C@H](CC(C)C)C(=O)N[C@H]1C(=O)N[C@@H](CC(N)=O)C(=O)N[C@H]2C(=O)N[C@H]3C(=O)N[C@H](C(=O)N[C@H](C(=O)O)c4cc(O)cc(O)c4-c4cc3ccc4O)[C@H](O)c3ccc(c(Cl)c3)Oc3cc2cc(c3O[C@@H]2O[C@H](CO)[C@@H](O)[C@H](O)[C@H]2O[C@H]2C[C@](C)(N)[C@H](O)[C@H](C)O2)Oc2ccc(cc2Cl)[C@H]1O [Vancomycin],MIC,S. haemolyticus (CoNS),1 mg/L
same,MIC,C. perfringens,0.5 mg/L
same,MIC,P. anaerobius,0.25 mg/L
same,MIC,P. micros,0.5 mg/L
same,RV40 activity as compared to Comparator,Staphylococcus aureus,86 ×
same,MIC,"Staphylococcus aureus; ATCC 33591 / MRSA, S. aureus MMX 5717 ATCC 33591, MRSA",1 mg/L
same,MIC,"Staphylococcus aureus; ATCC BAA-1756 / MRSA, S. aureus MMX 2011 ATCC BAA-1756, MRSA",1 mg/L
same,MIC,"Staphylococcus aureus; MRSA, S. aureus MMX 2010, MRSA",1 mg/L
same,MIC,"Staphylococcus aureus; MRSA, S. aureus MMX 3982, MRSA",0.5 mg/L
same,MIC,"Staphylococcus aureus; MRSA, S. aureus MMX 5985, MRSA",0.5 mg/L
same,MIC,"Staphylococcus aureus; MRSA, S. aureus MMX 5999, MRSA",0.5 mg/L
same,MIC,"Staphylococcus aureus; MRSA, S. aureus MMX 7899, MRSA",0.5 mg/L
same,MIC,"Staphylococcus aureus; MRSA, S. aureus MMX 7900, MRSA",0.5 mg/L
same,MIC,"Staphylococcus aureus; MRSA, S. aureus MMX 7901, MRSA",0.5 mg/L
same,MIC,"Staphylococcus aureus; MRSA, S. aureus MMX 7902, MRSA",1 mg/L
same,MIC,"Staphylococcus aureus; MRSA, S. aureus MMX 7903, MRSA",1 mg/L
same,MIC,"Staphylococcus aureus; MSSA, S. aureus MMX 2490, MSSA",1 mg/L
same,MIC,"Staphylococcus aureus; MSSA, S. aureus MMX 7907, MSSA",0.5 mg/L
same,MIC,"Staphylococcus aureus; MSSA, S. aureus MMX 7908, MSSA",1 mg/L
same,MIC,"Staphylococcus aureus; S. aureus MMX 4665, hVISA",4 mg/L
same,MIC,"Staphylococcus aureus; S. aureus MMX 5989, Mu3, hVISA",1 mg/L
same,MIC,"Staphylococcus aureus; VISA, S. aureus MMX 1723, Mu50, VISA",8 mg/L
same,MIC,"Staphylococcus aureus; VISA, S. aureus MMX 2124, VISA, DaptoNS",4 mg/L
same,MIC,"Staphylococcus aureus; VISA, S. aureus MMX 4658, VISA",4 mg/L
same,MIC,"Staphylococcus aureus; VISA, S. aureus MMX 4660, VISA",4 mg/L
same,MIC,"S. epidermidis (CoNS); S. epidermidis (CoNS) MMX 762, MRSE",2 mg/L
same,MIC,"S. epidermidis (CoNS); S. epidermidis (CoNS) MMX 5145, MRSE",1 mg/L
same,MIC,"Enterococci; E. faecalis MMX 101 ATCC 29212, VSE",2 mg/L
same,MIC,"Enterococci; E. faecalis MMX 1086, VanA VRE",> 64 mg/L
same,MIC,Enterococci; E. faecalis MMX 4176,1 mg/L
same,MIC,"Enterococci; E. faecium MMX 173, VanB VRE",> 64 mg/L
same,MIC,"Enterococci; E. faecium MMX 851, VanA VRE",> 64 mg/L
same,MIC,Enterococci; E. faecium MMX 4204,0.5 mg/L
same,MIC,S. lugdenensis (CoNS),0.5 mg/L
same,MIC,S. hominis (CoNS),0.5 mg/L
same,MIC,Streptococci; S. agalactiae MMX 427 ATCC 13813,0.25 mg/L
same,MIC,Streptococci; S. agalactiae MMX 4088,0.25 mg/L
same,MIC,"Streptococci; S. agalactiae MMX 4115, erm^R",0.25 mg/L
same,MIC,Streptococci; S. anginosus (AGS) MMX 1201 ATCC 33397,0.5 mg/L
same,MIC,Streptococci; S. constellatus (AGS) MMX 5677,0.25 mg/L
same,MIC,Streptococci; S. dysgalactiae MMX 5121,0.25 mg/L
same,MIC,Streptococci; S. dysgalactiae MMX 5123,0.5 mg/L
same,MIC,Streptococci; S. dysgalactiae MMX 5124,0.25 mg/L
same,MIC,Streptococci; S. mitis (MGS) MMX 1205 ATCC 49456,0.5 mg/L
same,MIC,Streptococci; S. mitis (MGS) MMX 5798,0.25 mg/L
same,MIC,Streptococci; S. oralis (MGS) MMX 5821,0.25 mg/L
same,MIC,"Streptococci; S. pneumoniae MMX 432, PRSP",0.25 mg/L
same,MIC,Streptococci; S. pneumoniae MMX 747,0.12 mg/L
same,MIC,"Streptococci; S. pneumoniae MMX 1195 ATCC 49619, PISP",0.25 mg/L
same,MIC,Streptococci; S. pyogenes MMX 404 ATCC 19615,0.25 mg/L
same,MIC,"Streptococci; S. pyogenes MMX 946, ermR",0.25 mg/L
same,MIC,Streptococci; S. pyogenes MMX 8778,0.25 mg/L
same,MIC,P. acnes; P. acnes MMX 7942 ATCC 6919,0.25 mg/L
same,MIC,P. acnes; P. acnes MMX 7946 ATCC 11827,0.25 mg/L
